Values joined by “and” are separate entries in the source; they are usually repeats but may differ in a detail not shown here. Identical values can stand only once. “Also recorded” adds a separate entry of the source.
Columns and labels:
[1] = molecular target: T1, hMAO-A (Homo sapiens, UniProt P21397); assay: biochemical; conditions: for remaining activity at 10 µM: read-out: Residual Activity at 10 µM (%) hMAO-A
T1 construct: purchased Sigma-Aldrich
T1 sequence (P21397 1-527): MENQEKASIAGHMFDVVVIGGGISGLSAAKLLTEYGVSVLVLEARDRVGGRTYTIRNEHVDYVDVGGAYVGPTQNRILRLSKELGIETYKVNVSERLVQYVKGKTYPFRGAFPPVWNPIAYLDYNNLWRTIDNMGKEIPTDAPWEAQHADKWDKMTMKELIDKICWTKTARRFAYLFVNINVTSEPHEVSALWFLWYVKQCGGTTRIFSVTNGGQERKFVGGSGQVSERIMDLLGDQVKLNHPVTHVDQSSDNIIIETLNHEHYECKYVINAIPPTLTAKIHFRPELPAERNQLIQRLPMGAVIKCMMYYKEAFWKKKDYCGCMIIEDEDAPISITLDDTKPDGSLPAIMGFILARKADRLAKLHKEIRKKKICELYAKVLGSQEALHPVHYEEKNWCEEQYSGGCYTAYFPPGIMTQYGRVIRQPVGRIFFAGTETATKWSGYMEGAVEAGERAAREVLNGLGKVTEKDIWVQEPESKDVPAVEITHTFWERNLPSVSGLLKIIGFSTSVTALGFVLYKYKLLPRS
Protocol: (§1) All other chemicals were of reagent grade.
(§2) hMAO-A and -B activities were determined using a continuous spectrophotometric method, as described previously. […] AChE and BChE activities were assayed as described by Ellman et al., with slight modification. Reactions were performed using AChE and BChE in the 0.5 mL reaction mixtures including 0.5 mM substrate (ATCI and BTCI, respectively) and color reagent (DTNB). […] Reaction rates are expressed as changes in absorbance per min.. Inhibitory activities of AChE and BChE were measured after preincubating enzyme with inhibitors for 15 min before adding DTNB and each substrate.
Inhibitory types and Ki values were determined using Lineweaver-Burk plots and secondary plots of their slopes, respectively.

[2] = molecular target: T2, AChE (Electrophorus electricus, UniProt O42275); assay: AChE inhibition (Ellman method); format: biochemical; conditions: read-out: Residual Activity at 10 µM (%) AChE
T2 construct: purchased Sigma-Aldrich
Protocol: as §1
as §2, with “substrate. […]” for “substrate.”

[3] = molecular target: T3, BACE1 (Homo sapiens, UniProt P56817); assay: BACE1 inhibition (fluorescent activity detection kit); format: biochemical; conditions: read-out: Residual Activity at 10 µM (%) BACE1
T3 construct: purchased Sigma-Aldrich

[4] = Cytotoxicity, CCK-8 cell viability, SH-SY5Y; format: cell-based, human; conditions: human, 30 µM
Description: (§3) Dimethyl sulfoxide (DMSO) and 2-mercaptoethanol (2-ME) were obtained from Sigma Aldrich. Cell counting kit-8 (CCK-8) was obtained from Dojindo Laboratories (Kumamoto, Japan). Madin-Darby canine kidney (MDCK; KCLB 10034) cells, human acute promyelocytic leukemia (HL-60; KCLB 10240) cells, and human neuroblastoma cells (SH-SY5Y; KCLB 22266) were purchased from the Korean Cell Line Bank (KCLB, Seoul, Republic of Korea).
(§4) Passages were used between 10 and 30. Following trypsinization, MDCK (1 × 10^4), HL-60 (5 × 10^4), and SH-SY5Y (5 × 10^4) cells were seeded in 96-well plates and treated with 1, 3, 10, 30 and 50 µM of each inhibitor. The plates were then incubated for 24 h at 37 °C with 5% CO2, and cell viability was determined by the CCK-8 and by measuring the optical density at 450 nm using a microplate reader (Versa Max, Molecular Devices, Sunnyvale, CA, USA). The cell viability was expressed as % by comparing the absorbance of the sample to that of the control. Statistical differences between groups were analyzed by ANOVA using IBM SPSS statistics 27 and probability values (p-values) less than 0.05 were marked as significant values.

[5] = tested on: SH-SY5Y cells; assay: Cytotoxicity, CCK-8 cell viability, SH-SY5Y; format: cell-based, human; conditions: neuroblastoma, 24 h
Description: as §3, §4

[6] = molecular target: T4, hMAO-B (Homo sapiens, UniProt P27338); assay: Kinetics of hMAO-B inhibition (Lineweaver-Burk and secondary plots); format: biochemical; conditions: for Inhibition type hMAO-B: Lineweaver-Burk plots; for Ki: secondary plots of Lineweaver-Burk slopes
T4 construct: purchased Sigma-Aldrich
T4 sequence (P27338 1-520): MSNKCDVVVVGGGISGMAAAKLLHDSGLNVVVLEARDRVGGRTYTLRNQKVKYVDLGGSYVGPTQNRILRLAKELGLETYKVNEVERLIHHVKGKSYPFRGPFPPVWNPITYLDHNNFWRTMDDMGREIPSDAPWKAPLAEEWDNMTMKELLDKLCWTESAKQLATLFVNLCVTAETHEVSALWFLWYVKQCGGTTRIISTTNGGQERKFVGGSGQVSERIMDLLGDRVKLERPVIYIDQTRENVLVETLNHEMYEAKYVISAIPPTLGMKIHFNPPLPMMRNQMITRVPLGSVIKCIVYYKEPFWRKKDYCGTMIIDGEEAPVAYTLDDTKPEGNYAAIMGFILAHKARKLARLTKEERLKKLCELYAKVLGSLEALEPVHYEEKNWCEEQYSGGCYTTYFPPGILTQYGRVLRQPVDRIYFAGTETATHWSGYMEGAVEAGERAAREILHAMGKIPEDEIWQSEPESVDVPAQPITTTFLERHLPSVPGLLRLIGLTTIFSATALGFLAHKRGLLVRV

[7] = tested on: MDCK cells; assay: Cytotoxicity, CCK-8 cell viability, MDCK; format: cell-based, canine; conditions: normal cell line, up to 50 µM, 24 h
Description: as §3, §4

[8] = molecular target: T4, hMAO-B; assay: Reversibility of hMAO-B inhibition by dialysis; format: biochemical; conditions: for Reversibility of hMAO-B inhibition: dialysis; for Relative activity dialyzed (AD), hMAO-B: inhibitor at ~2 times IC50, after dialysis; for Relative activity undialyzed (AU), hMAO-B: inhibitor at ~2 times IC50, before dialysis
Protocol: (§5) After preincubating compounds or reference inhibitors with hMAO-A and hMAO-B, residual activities for undialyzed and dialyzed samples were measured. Relative values for undialyzed (AU) and dialyzed (AD) activities were then calculated and compared with non-inhibitor treated controls. Reversibilities were determined by comparing the AU and AD values of inhibitors with those of references.

[9] = molecular target: T5, BChE (Equus caballus, UniProt P81908); assay: BChE inhibition (Ellman method); format: biochemical, equine; conditions: read-out: Residual Activity at 10 µM (%) BChE
T5 construct: BChE from equine serum; purchased Sigma-Aldrich; host or cells: equine serum
Protocol: as §1
as §2, with “substrate. […]” for “substrate.”

[10] = tested on: HL-60 cells; assay: Cytotoxicity, CCK-8 cell viability, HL-60; format: cell-based, human; conditions: cancer cell line, up to 50 µM, 24 h
Description: as §3, §4

[11] = molecular target: T4, hMAO-B; assay: biochemical; format: biochemical; conditions: for SI: hMAO-B selectivity: IC50 of hMAO-A divided by IC50 of hMAO-B; for remaining activity at 10 µM: read-out: Residual Activity at 10 µM (%) hMAO-B
Protocol: as §1
as §2, with “substrate. […]” for “substrate.”

[12] = molecular target: T1, hMAO-A; assay: Kinetics of hMAO-A inhibition (Lineweaver-Burk and secondary plots); format: biochemical
Protocol: The kinetics of MAO-A inhibition by 13 was also investigated as above, except at 0.0075–0.12 mM of substrate concentrations. Inhibitory types and Ki values were determined using Lineweaver-Burk plots and secondary plots of their slopes, respectively.

[13] = molecular target: T1, hMAO-A; assay: Reversibility of hMAO-A inhibition by dialysis; format: biochemical
Protocol: as §5

T5 sequence (P81908 whole entry): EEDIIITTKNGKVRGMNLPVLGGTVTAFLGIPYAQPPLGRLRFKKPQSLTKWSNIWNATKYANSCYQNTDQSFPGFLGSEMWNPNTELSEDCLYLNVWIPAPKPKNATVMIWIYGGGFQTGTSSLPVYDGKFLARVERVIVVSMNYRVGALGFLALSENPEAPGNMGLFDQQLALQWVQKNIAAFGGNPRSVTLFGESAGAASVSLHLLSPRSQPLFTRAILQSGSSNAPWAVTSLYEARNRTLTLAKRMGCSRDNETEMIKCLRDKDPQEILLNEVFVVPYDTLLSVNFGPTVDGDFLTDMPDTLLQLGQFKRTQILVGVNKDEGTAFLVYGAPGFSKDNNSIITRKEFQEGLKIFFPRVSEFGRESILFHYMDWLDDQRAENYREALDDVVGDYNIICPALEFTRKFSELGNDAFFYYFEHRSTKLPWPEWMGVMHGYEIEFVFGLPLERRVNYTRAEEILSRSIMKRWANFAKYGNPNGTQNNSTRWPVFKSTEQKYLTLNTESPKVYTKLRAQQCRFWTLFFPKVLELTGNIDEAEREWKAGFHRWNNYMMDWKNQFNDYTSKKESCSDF
T3 sequence (P56817 46-501): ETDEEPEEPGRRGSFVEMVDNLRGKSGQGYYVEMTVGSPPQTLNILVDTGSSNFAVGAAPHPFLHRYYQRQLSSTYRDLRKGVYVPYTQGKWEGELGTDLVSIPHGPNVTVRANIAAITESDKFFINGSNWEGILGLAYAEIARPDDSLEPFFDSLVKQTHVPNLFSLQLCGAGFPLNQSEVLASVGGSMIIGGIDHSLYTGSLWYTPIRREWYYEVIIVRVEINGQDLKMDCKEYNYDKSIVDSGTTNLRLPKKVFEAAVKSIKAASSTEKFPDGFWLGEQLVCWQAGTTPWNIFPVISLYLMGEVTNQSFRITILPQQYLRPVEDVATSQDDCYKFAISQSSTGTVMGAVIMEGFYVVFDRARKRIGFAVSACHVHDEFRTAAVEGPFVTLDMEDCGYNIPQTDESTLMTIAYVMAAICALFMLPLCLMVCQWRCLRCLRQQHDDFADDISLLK
T2 sequence (O42275 24-633): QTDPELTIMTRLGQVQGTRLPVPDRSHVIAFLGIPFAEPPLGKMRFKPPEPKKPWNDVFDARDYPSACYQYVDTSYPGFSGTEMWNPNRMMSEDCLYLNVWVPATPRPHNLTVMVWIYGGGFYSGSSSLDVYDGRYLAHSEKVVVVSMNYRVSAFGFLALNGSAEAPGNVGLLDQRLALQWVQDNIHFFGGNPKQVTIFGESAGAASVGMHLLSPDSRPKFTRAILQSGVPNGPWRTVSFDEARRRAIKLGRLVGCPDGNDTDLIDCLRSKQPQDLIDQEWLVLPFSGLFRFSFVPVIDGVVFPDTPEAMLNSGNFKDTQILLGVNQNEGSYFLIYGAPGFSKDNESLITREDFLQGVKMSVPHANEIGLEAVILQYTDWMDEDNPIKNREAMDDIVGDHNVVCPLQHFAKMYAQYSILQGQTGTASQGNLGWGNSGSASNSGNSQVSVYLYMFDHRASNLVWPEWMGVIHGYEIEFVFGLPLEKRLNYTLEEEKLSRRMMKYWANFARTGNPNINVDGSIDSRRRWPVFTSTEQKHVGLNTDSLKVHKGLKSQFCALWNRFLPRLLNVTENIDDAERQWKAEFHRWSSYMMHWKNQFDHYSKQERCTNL

| Compound | IC50 [1] | remaining activity at 10 µM [1] | remaining activity at 10 µM [2] | remaining activity at 10 µM [3] | Toxicity to SH-SY5Y cells [5] | Inhibition type hMAO-B [6] | Ki [6] | Effect on viability of MDCK cells [7] | Reversibility of hMAO-B inhibition [8] | Relative activity dialyzed (AD), hMAO-B [8] | Relative activity undialyzed (AU), hMAO-B [8] | remaining activity at 10 µM [9] | Effect on viability of HL-60 cells [10] | IC50 [11] | SI [11] | remaining activity at 10 µM [11] | other results |
| --- | --- | --- | --- | --- | --- | --- | --- | --- | --- | --- | --- | --- | --- | --- | --- | --- | --- |
| COc1ccc2c(c1)OC1c3ccc(O)cc3OCC21 (stereo not drawn) [Compound 8, 3-hydroxy-9-methoxypterocarpan] | 19900 ± 850 nM | 64.18 ± 0.53% | 80.6 ± 2.62% | 111.4 ± 0.52% | moderate toxicity | competitive inhibitor | 197 ± 4 nM | non-toxicity; also recorded: no effects on the viabilities | reversible inhibitor | 72.7% | 29.8% | 98.4 ± 1% | non-toxicity; also recorded: no effects on the viabilities | 450 ± 32 nM | 44.2 | 4.17 ± 0.84% | viability at 24 h, 30 µM ([4]; SH-SY5Y cells): 74%; times higher hMAO-B inhibitory activity than 13 ([11]; 3-OH of 8 versus 3-OCH3 of 13): 1.6 times; times higher hMAO-B inhibition than maackiain ([11]; versus maackiain IC50 of ref 36): 1.5 times |
| COc1ccc2c(c1)O[C@H]1c3ccc(OC)cc3OC[C@@H]21 [Compound 13, 3,9-dimethoxypterocarpan] | 1490 ± 21 nM | 11.6 ± 2.6% | 81 ± 2.44% | 101.48 ± 0.01% | moderate toxicity | competitive inhibitor | 210 nM and 212 nM | non-toxicity; also recorded: no effects on the viabilities | reversible inhibitor | 73.5% | 32.0% | 88.5 ± 1.96% | non-toxicity; also recorded: no effects on the viabilities | 720 ± 28 nM | 2.07 | 4.05 ± 1.91% | viability at 24 h, 30 µM ([4]; SH-SY5Y neuroblastoma cells): 71.1%; Inhibition type hMAO-A ([12]; Lineweaver-Burk plots): competitive inhibitor; Ki ([12]; secondary plots of Lineweaver-Burk slopes): 617 ± 23 nM; Reversibility of hMAO-A inhibition ([13]; dialysis): reversible inhibitor; Relative activity dialyzed (AD), hMAO-A ([13]; inhibitor at ~2 times IC50, after dialysis): 75.8%; Relative activity undialyzed (AU), hMAO-A ([13]; inhibitor at ~2 times IC50, before dialysis): 25.4%; times higher hMAO-B inhibitory activity than 12 ([11]; 9-OCH3 of 13 versus 8,9-methylenedioxy of 12): 4.7 times |

— PMC9822396 (Molecules, 2022)
